Test results from patent EP0800516B1, “FIBRINOGEN RECEPTOR ANTAGONISTS HAVING SUBSTITUTED (b)-AMINO ACID RESIDUES AND PHARMACEUTICAL COMPOSITIONS COMPRISING THE SAME” (Nippon Steel Corporation, priority 1994, dated 1996).

Test system: Human Platelet Aggregation
Test: in vitro human platelet aggregation using PRP (collagen-induced, light transmittance)
Type: cell-based
Conditions: aggregation induced with collagen (final concentration: 5 µ g/ml), 37°C
Excerpt: (Measurement of in vitro Human Platelet Aggregation using PRP)
Healthy male volunteers who had not taken any medicines for at least two weeks were selected as subjects. Blood was collected from the forearm vein of each subject on an empty stomach using a #19 needle and a plastic syringe preliminarily charged with 1/10 volume of a 3.8% sodium citrate solution. Immediately after the blood collection, the syringe was shaken gently to mix the blood with the sodium citrate solution. The mixed blood was centrifuged (1100 rpm, 250 g) at room temperature for 15 minutes and the rotation was stopped without applying the brake. Then, the supernatant was collected with a Komagome type pipette to obtain platelet-rich plasma (PRP). The PRP was stored at room temperature. The blood remaining after centrifuging was further centrifuged (3500 rpm, 1500 g) at room temperature for 15 minutes and the rotation was stopped without applying the brake. The supernatant was collected to obtain platelet-poor plasma (PPP). After the preparation of the PRP, the number of platelets was counted and only samples containing more than 2 x 10^8 of platelets per milliliter were subjected to the following experiments.
Platelet aggregation was measured using an 8-channel platelet aggregation measuring instrument (Hematracer, Nikoh Bioscience, Tokyo, Japan) on the basis of the change in light transmittance through the PRP. First, the PPP and PRP (each 200µl) were placed in glass cuvettes and incubated at 37°C . Thereafter, the transmittance was measured. The transmittance of the PPP was determined as 100% and that of the PRP as 0%. Then, 10µl of physiological saline or a sample-containing physiological saline was added to the PRP and incubated at 37°C for one minute. A collagen solution (10 µ l) at a concentration of […] was added (final concentration: 5 µ g/ml) to induce aggregation and thereafter the transmittance was measured over 7 minutes. After aggregation with collagen and ADP was confirmed, only those samples in which the maximum aggregation with collagen was at least 70% were subjected to the experiment.
The sample was dissolved in physiological saline to give a concentration of 2.2 x 10 ^-2 M and a 2-fold dilution series was prepared for use in the experiments. The samples insoluble in the physiological saline were dissolved in physiological saline containing 10% DMSO (dimethyl sulfoxide).
The results were calculated as follows: [formula]
A graph was constructed by plotting the percent aggregation inhibition against the sample concentration and the concentration at which the aggregation was inhibited by 50% (IC50) was calculated from the graph.

Structure (SMILES)	IC50 [nM]
CC(C)C(C(=O)N1CCC(CC(=O)O)CC1)C(NC(=O)c1ccc(C(=N)N)cc1)c1ccccc1 (stereo not drawn) [Comparative Example 8, N-(N-4-amidinobenzoyl-β-phenyl-α -isopropyl-β-alanyl)-4-piperidineacetic acid, reference compound]	82000
CC=CC(NC(=O)c1ccc(C(=N)N)cc1)C(C)(C)C(=O)N1CCC(CC(=O)O)CC1 (stereo not drawn) [Example 29, N-(N-4-amidinobenzoyl-β-1-propenyl-α,α-dimethyl-β-alanyl)-4-piperidineacetic acid]	100
CC(C)C(NC(=O)c1ccc(C(=N)N)cc1)C(C)(C)C(=O)N1CCC(CC(=O)O)CC1 (stereo not drawn) [Example 5, N-(N-4-amidinobenzoyl-β-isopropyl-α,α-dimethyl-β-alanyl)-4-piperidineacetic acid]	190
CC(C)(C(=O)N1CCC(CC(=O)O)CC1)C(NC(=O)c1ccc(C(=N)N)cc1Cl)c1ccccc1 (stereo not drawn) [Example 34, N-(N-4-amidino-2-chlorobenzoyl-β-phenyl-α, α-dimethyl-β-alanyl)-4-piperidineacetic acid]	360
CC(C)(C(=O)N1CCC(CC(=O)O)CC1)C(NC(=O)c1ccc(C(=N)N)cc1)c1ccc(O)cc1 (stereo not drawn) [Example 27, N-(N-4-amidinobenzoyl-β-p-hydroxyphenyl-α, α-dimethyl-β-alanyl)-4-piperidineacetic acid]	200
CC(C)(C(=O)N1CCC(CC(=O)O)CC1)C(NC(=O)c1ccc(C(=N)N)cc1)c1ccoc1 (stereo not drawn) [Example 13, N-(N-4-amidinobenzoyl-β-(3-furyl)-α,α-dimethyl-β-alanyl)-4-piperidineacetic acid]	270
CC(C)(C(=O)N1CCC(CC(=O)O)CC1)C(CC1CCCCC1)NC(=O)c1ccc(C(=N)N)cc1 (stereo not drawn) [Example 12, N-(N-4-amidinobenzoyl-β-cyclohexylmethyl-α, α-dimethyl-β-alanyl)-4-piperidineacetic acid]	170
CCCCC(NC(=O)c1ccc(C(=N)N)cc1F)C(C)(C)C(=O)N1CCC(CC(=O)O)CC1 (stereo not drawn) [Example 33, N-(N-4-amidino-2-fluorobenzoyl-β-n-butyl-α ,α-dimethyl-β-alanyl)-4-piperidineacetic acid]	73
CC(C)(C(=O)N1CCC(CC(=O)O)CC1)C(NC(=O)c1ccc(C(=N)N)cc1)C1CCNCC1 (stereo not drawn) [Example 15, N-(N-4-amidinobenzoyl-β-(4-piperidyl)-α, α-dimethyl-β-alanyl)-4-piperidineacetic acid]	180
CC(CC(=O)N1CCC(CC(=O)O)CC1)NC(=O)c1ccc(C(=N)N)cc1 (stereo not drawn) [Comparative Example 2, N-(N-4-amidinobenzoyl-β-methyl-β -alanyl)-4-piperidineacetic acid, reference compound]	50000
CC(C)(C(=O)N1CCC(CC(=O)O)CC1)C(CCc1cccc(O)c1)NC(=O)c1ccc(C(=N)N)cc1 (stereo not drawn) [Example 37, N-(N-4-amidinobenzoyl-β-m-hydroxyphenethyl-α, α-dimethyl-β-alanyl)-4-piperidineacetic acid]	190
CC(C)(C(=O)N1CCC(CC(=O)O)CC1)C(NC(=O)c1ccc(C(=N)N)cc1)c1ccc2ccccc2c1 (stereo not drawn) [Example 16, N-(N-4-amidinobenzoyl-β-(2-naphthyl)-α,α -dimethyl-β-alanyl)-4-piperidineacetic acid]	330
